Test results: ChEMBL document CHEMBL5390198, “Scaffold hopping of N-benzyl-3,4,5-trimethoxyaniline: 5,6,7-Trimethoxyflavan derivatives as novel potential anticancer agents modulating hippo signaling pathway” (2023)
Activity calls are given as the source filed them. The calls are words filed in the database; no cut-off is given here.

Key:
Type in all cases: functional
[1] = tested on: HOP-92; experiment: cells; conditions: Homo sapiens, time 24-72 hrs
Description: Antiproliferative activity against human HOP-92 cells assessed as inhibition of cell growth at 10 uM measured after 24 to 72 hrs by SRB method relative to control

[2] = tested on: NCI-H522; experiment: Antiproliferative activity against human NCI-H522 cells assessed as inhibition of cell growth at 10 uM measured after 24 to 72 hrs by SRB method relative to control; conditions: time 24-72 hrs
[3] = tested on: A549; experiment: cells; conditions: Homo sapiens, time 24-72 hrs
Description: Antiproliferative activity against human A549 cells assessed as inhibition of cell growth at 10 uM measured after 24 to 72 hrs by SRB method relative to control

[4] = tested on: HOP-62; experiment: Antiproliferative activity against human HOP-62 cells assessed as inhibition of cell growth at 10 uM measured after 24 to 72 hrs by SRB method relative to control; conditions: time 24-72 hrs
[5] = tested on: NCI-H23; experiment: cells; conditions: Homo sapiens, time 24-72 hrs
Description: Antiproliferative activity against human NCI-H23 cells assessed as inhibition of cell growth at 10 uM measured after 24 to 72 hrs by SRB method relative to control

[6] = tested on: NCI-H322M; experiment: Antiproliferative activity against human NCI-H322M cells assessed as inhibition of cell growth at 10 uM measured after 24 to 72 hrs by SRB method relative to control; conditions: time 24-72 hrs
[7] = tested on: NCI-H226; experiment: cells; conditions: Homo sapiens, time 24-72 hrs
Description: Antiproliferative activity against human NCI-H226 cells assessed as inhibition of cell growth at 10 uM measured after 24 to 72 hrs by SRB method relative to control

[8] = tested on: EKVX; experiment: cells; conditions: Homo sapiens, time 24-72 hrs
Description: Antiproliferative activity against human EKVX cells assessed as inhibition of cell growth at 10 uM measured after 24 to 72 hrs by SRB method relative to control

[9] = tested on: NCI-H460; experiment: cells; conditions: Homo sapiens, time 24-72 hrs
Description: Antiproliferative activity against human NCI-H460 cells assessed as inhibition of cell growth at 10 uM measured after 24 to 72 hrs by SRB method relative to control

## COc1cc2c(c(OC)c1OC)CCC(c1cccc(NC(=O)c3ccccc3Br)c1)O2 (stereo not given)
[1]
  inhibition at 10 µM: 8.39%
[2]
  inhibition at 10 µM: 20.7%
[3]
  inhibition at 10 µM: 13.8%
[4]
  inhibition at 10 µM: 2.7%
[5]
  inhibition at 10 µM: 5.1%
[6]
  inhibition at 10 µM: 6.37%
[7]
  inhibition at 10 µM: 14.6%
[8]
  inhibition at 10 µM: 7.82%

## COc1cc2c(c(OC)c1OC)CCC(c1cccc(C(=O)Nc3ccccc3Br)c1)O2 (stereo not given)
[1]
  inhibition at 10 µM: 33.7%
[2]
  inhibition at 10 µM: 19.9%
[3]
  inhibition at 10 µM: 18.9%
[4]
  inhibition at 10 µM: 7.73%
[5]
  inhibition at 10 µM: 2.79%
[6]
  inhibition at 10 µM: 5.11%
[7]
  inhibition at 10 µM: 7.74%
[8]
  inhibition at 10 µM: 9.92%

## COc1cc2c(c(OC)c1OC)CCC(c1cccc(C(=O)Nc3ccc([N+](=O)[O-])cc3)c1)O2 (stereo not given)
[1]
  inhibition at 10 µM: 57.4%
[2]
  inhibition at 10 µM: 50.4%
[3]
  inhibition at 10 µM: 44.8%
[4]
  inhibition at 10 µM: 23.3%
[5]
  inhibition at 10 µM: 52.8%
[6]
  inhibition at 10 µM: 31.7%
[7]
  inhibition at 10 µM: 51.7%
[8]
  inhibition at 10 µM: 44.6%
[9]
  inhibition at 10 µM: 41.1%

## COc1cc2c(c(OC)c1OC)CCC(c1cccc(C(=O)Nc3ccc(C#N)cc3)c1)O2 (stereo not given)
[1]
  inhibition at 10 µM: 47.7%
[2]
  inhibition at 10 µM: 61.6%
[3]
  inhibition at 10 µM: 49.1%
[4]
  inhibition at 10 µM: 27.9%
[5]
  inhibition at 10 µM: 59.4%
[6]
  inhibition at 10 µM: 22.6%
[7]
  inhibition at 10 µM: 67%
[8]
  inhibition at 10 µM: 39.9%
[9]
  inhibition at 10 µM: 43.5%

## COc1cc2c(c(OC)c1OC)CCC(c1cccc(NC(=O)c3cccc(Br)c3)c1)O2 (stereo not given)
[1]
  inhibition at 10 µM: 6.02%
[2]
  inhibition at 10 µM: 19%
[3]
  inhibition at 10 µM: 18.8%
[4]
  inhibition at 10 µM: 0.21%
[5]
  inhibition at 10 µM: 4.86%
[6]
  inhibition at 10 µM: 1.51%
[7]
  inhibition at 10 µM: 6.31%
[8]
  inhibition at 10 µM: 15.4%

## COc1ccccc1NC(=O)c1cccc(C2CCc3c(cc(OC)c(OC)c3OC)O2)c1 (stereo not given)
[1]
  inhibition at 10 µM: 9.4%
[2]
  inhibition at 10 µM: 27.7%
[3]
  inhibition at 10 µM: 9.57%
[4]
  inhibition at 10 µM: 8.84%
[5]
  inhibition at 10 µM: 1.98%
[6]
  inhibition at 10 µM: 11.4%
[7]
  inhibition at 10 µM: 8.23%
[8]
  inhibition at 10 µM: 5.98%
[9]
  inhibition at 10 µM: 2.86%

## COc1cc2c(c(OC)c1OC)CCC(c1cccc(NC(=O)c3ccccc3)c1)O2 (stereo not given)
[1]
  inhibition at 10 µM: 5.1%
[2]
  inhibition at 10 µM: 24.3%
[3]
  inhibition at 10 µM: 19.5%
[4]
  inhibition at 10 µM: 1.13%
[5]
  inhibition at 10 µM: 15.6%
[6]
  inhibition at 10 µM: 5.18%
[7]
  inhibition at 10 µM: 19.8%

## COc1cc2c(c(OC)c1OC)CCC(c1cccc(C(=O)Nc3ccccc3)c1)O2 (stereo not given)
[1]
  inhibition at 10 µM: 77.9%
[2]
  inhibition at 10 µM: 38%
[3]
  inhibition at 10 µM: 15.8%
[4]
  inhibition at 10 µM: 6.18%
[5]
  inhibition at 10 µM: 15.3%
[6]
  inhibition at 10 µM: 41.1%
[7]
  inhibition at 10 µM: 25.6%
[8]
  inhibition at 10 µM: 9.05%
[9]
  inhibition at 10 µM: 12.2%

## COc1cccc(C(=O)Nc2cccc(C3CCc4c(cc(OC)c(OC)c4OC)O3)c2)c1 (stereo not given)
[1]
  inhibition at 10 µM: 13%
[2]
  inhibition at 10 µM: 33.5%
[3]
  inhibition at 10 µM: 22.1%
[4]
  inhibition at 10 µM: 8.46%
[5]
  inhibition at 10 µM: 10.2%
[6]
  inhibition at 10 µM: 18.6%
[7]
  inhibition at 10 µM: 24%
[8]
  inhibition at 10 µM: 15.2%
[9]
  inhibition at 10 µM: 4.3%

## COc1ccccc1C(=O)Nc1cccc(C2CCc3c(cc(OC)c(OC)c3OC)O2)c1 (stereo not given)
[1]
  inhibition at 10 µM: 4.05%
[2]
  inhibition at 10 µM: 19.7%
[3]
  inhibition at 10 µM: 11.7%
[4]
  inhibition at 10 µM: 4.59%
[5]
  inhibition at 10 µM: 0.42%
[6]
  inhibition at 10 µM: 3.14%
[7]
  inhibition at 10 µM: 8.5%
[8]
  inhibition at 10 µM: 2.25%
[9]
  inhibition at 10 µM: 2.38%

## COc1cccc(NC(=O)c2cccc(C3CCc4c(cc(OC)c(OC)c4OC)O3)c2)c1 (stereo not given)
[1]
  inhibition at 10 µM: 73.7%
[2]
  inhibition at 10 µM: 46.9%
[3]
  inhibition at 10 µM: 29.2%
[4]
  inhibition at 10 µM: 14.8%
[5]
  inhibition at 10 µM: 26.1%
[6]
  inhibition at 10 µM: 45.8%
[7]
  inhibition at 10 µM: 46.3%
[8]
  inhibition at 10 µM: 30.9%
[9]
  inhibition at 10 µM: 16%

## COc1cc2c(c(OC)c1OC)CCC(c1cccc(NC(=O)c3ccc([N+](=O)[O-])cc3)c1)O2 (stereo not given)
[1]
  inhibition at 10 µM: 15.7%
[2]
  inhibition at 10 µM: 32.5%
[3]
  inhibition at 10 µM: 32.2%
[4]
  inhibition at 10 µM: 7.28%
[5]
  inhibition at 10 µM: 34.2%
[6]
  inhibition at 10 µM: 11%
[7]
  inhibition at 10 µM: 50.7%
[8]
  inhibition at 10 µM: 35.4%
[9]
  inhibition at 10 µM: 29%

## COc1cc2c(c(OC)c1OC)CCC(c1cccc(C(=O)Nc3ccc(Br)cc3)c1)O2 (stereo not given)
[1]
  inhibition at 10 µM: 83%
[2]
  inhibition at 10 µM: 51.1%
[3]
  inhibition at 10 µM: 35.8%
[4]
  inhibition at 10 µM: 18%
[5]
  inhibition at 10 µM: 24.2%
[6]
  inhibition at 10 µM: 50%
[7]
  inhibition at 10 µM: 37.3%
[8]
  inhibition at 10 µM: 39.5%
[9]
  inhibition at 10 µM: 16%

## COc1cc2c(c(OC)c1OC)CCC(c1cccc(NC(=O)c3ccc(Br)cc3)c1)O2 (stereo not given)
[1]
  inhibition at 10 µM: 41.5%
[2]
  inhibition at 10 µM: 25.4%
[3]
  inhibition at 10 µM: 32.6%
[4]
  inhibition at 10 µM: 12.8%
[5]
  inhibition at 10 µM: 19.9%
[6]
  inhibition at 10 µM: 24.9%
[7]
  inhibition at 10 µM: 27.6%
[8]
  inhibition at 10 µM: 22.8%
[9]
  inhibition at 10 µM: 6.47%

## COc1cc2c(c(OC)c1OC)CCC(c1cccc(NC(=O)C(C)C)c1)O2 (stereo not given)
[2]
  inhibition at 10 µM: 9.48%
[3]
  inhibition at 10 µM: 10.7%
[4]
  inhibition: inactive
[5]
  inhibition at 10 µM: 2.65%
[6]
  inhibition: inactive
[7]
  inhibition at 10 µM: 3.99%

## COc1cc2c(c(OC)c1OC)CCC(c1cccc(C(=O)Nc3cccc(Cl)c3)c1)O2 (stereo not given)
[1]
  inhibition at 10 µM: 91.5%
[2]
  inhibition at 10 µM: 48.3%
[3]
  inhibition at 10 µM: 38.5%
[4]
  inhibition at 10 µM: 20.4%
[5]
  inhibition at 10 µM: 14.2%
[6]
  inhibition at 10 µM: 48.3%
[7]
  inhibition at 10 µM: 34.4%
[8]
  inhibition at 10 µM: 35.8%
[9]
  inhibition at 10 µM: 15%

## COc1cc(C(=O)Nc2cccc(C3CCc4c(cc(OC)c(OC)c4OC)O3)c2)cc(OC)c1OC (stereo not given)
[1]
  inhibition at 10 µM: 48.9%
[2]
  inhibition at 10 µM: 56.8%
[3]
  inhibition at 10 µM: 27.6%
[4]
  inhibition at 10 µM: 26.1%
[5]
  inhibition at 10 µM: 6.7%
[6]
  inhibition at 10 µM: 3.54%
[7]
  inhibition at 10 µM: 23.8%
[8]
  inhibition at 10 µM: 19.5%
[9]
  inhibition at 10 µM: 12.7%

## COc1cc2c(c(OC)c1OC)CCC(c1cccc(C(=O)NC(C)C)c1)O2 (stereo not given)
[1]
  inhibition at 10 µM: 19.7%
[2]
  inhibition at 10 µM: 17%
[3]
  inhibition at 10 µM: 1.14%
[4]
  inhibition at 10 µM: 1.41%
[5]
  inhibition at 10 µM: 6.78%
[6]
  inhibition at 10 µM: 4.16%
[7]
  inhibition at 10 µM: 16.4%
[9]
  inhibition at 10 µM: 2.47%

## COc1cc2c(c(OC)c1OC)CCC(c1cccc(C(=O)Nc3cccc(Br)c3)c1)O2 (stereo not given)
[1]
  inhibition at 10 µM: 93.8%
[2]
  inhibition at 10 µM: 51.2%
[3]
  inhibition at 10 µM: 35.5%
[4]
  inhibition at 10 µM: 3.19%
[5]
  inhibition at 10 µM: 22.5%
[6]
  inhibition at 10 µM: 49.1%
[7]
  inhibition at 10 µM: 30.1%
[8]
  inhibition at 10 µM: 49.6%
[9]
  inhibition at 10 µM: 29.5%

## COc1cc2c(c(OC)c1OC)CCC(c1cccc(NC(=O)c3cccc(Cl)c3)c1)O2 (stereo not given)
[1]
  inhibition at 10 µM: 16.9%
[2]
  inhibition at 10 µM: 37.9%
[3]
  inhibition at 10 µM: 15%
[4]
  inhibition at 10 µM: 7.17%
[5]
  inhibition at 10 µM: 7.27%
[6]
  inhibition at 10 µM: 9.74%
[7]
  inhibition at 10 µM: 20.2%
[8]
  inhibition at 10 µM: 14.1%
[9]
  inhibition at 10 µM: 3.06%

## COc1cc2c(c(OC)c1OC)CCC(c1cccc(NC(=O)c3ccc(C#N)cc3)c1)O2 (stereo not given)
[1]
  inhibition at 10 µM: 10.6%
[2]
  inhibition at 10 µM: 42.8%
[3]
  inhibition at 10 µM: 29.4%
[4]
  inhibition at 10 µM: 21.8%
[5]
  inhibition at 10 µM: 28.1%
[6]
  inhibition at 10 µM: 11.1%
[7]
  inhibition at 10 µM: 28.8%
[8]
  inhibition at 10 µM: 29%
[9]
  inhibition at 10 µM: 5.83%
